Source: patent publication US20250127741A1, “MEDICINAL COMPOSITION COMPRISING RIBOSE AND AMINO ACIDS” (MEE-HU PHARMA GMBH, priority 2021, published 2025)

Test system: resistant strain of E. Coli (O157.H7)
Assay: In vivo animal study #2: granuloma pouch model in Wistar rats, bacterial counts in pouch fluid
Conditions: male Wistar rats; given alone every 12 h, six doses (co-trimoxazole 30 mg/kg i.p.; inventive composition 500 mg/kg p.o.); all time intervals
Description: Male Wistar rats, weighing 200-250 g, were infected with a resistant strain of E. Coli (O157.H7) using the granuloma pouch model. Specifically, pouches were produced by injecting 30 ml of sterile filtered air followed by injection of 0.5 ml of 0.5% croton oil in sesame seed oil deep into the loose connective dorsal tissue. Two days later, approximately 10 ml of air were withdrawn, and after 2 more days, 2 ml of 1% peptone and 0.35% agar in saline solution were injected in the pouch. On day 10, rats were infected with 10^6 CFU of E. coli suspended in 1.5 ml of THB containing 2.5% gastric mucin and 0.35% agar.
The rats were divided in groups of five rats, and the following drugs, either alone or concurrently administered, were administered every 12 h for three consecutive days, making a total of six doses, starting 24 h after infection: co-trimoxazole (Septrin, GlaxoSmithKline) 30 mg/kg (i.p) and the inventive composition 500 mg/kg (p.o) (the 500 mg referring to the weight of the lyophilisate of Table 1 contained in the amount of mixed solution administered). […]
Samples (0.5 mL) of pouch fluid were withdrawn from each animal just before treatment (0 time), 3 h after the first dose, just before the last dose, 3 and 24 h after the last dose. […] The results represent the average values obtained from all the animals in the same group at the same intervals and expressed as log 10 CFU/ml. […]

co-trimoxazole [cotrimoxazole]
bacterial counts in pouch fluid, difference to control group: no significant differences
